Results as given in patent US10092578B2, “Active agents and their oligomers and polymers” (Polymerix Corporation, priority 2006, dated 2018).
In brackets after ≈: the same amount, converted by molar mass.

Columns and labels:
[1] = system: Corynebacter sp. form organisms; assay: Minimum Inhibitory Concentration (MIC) assessment, Coryne form; type: cell-based; conditions: 24 hours, particle suspensions in water; read-out: MIC versus Coryne form
Description: (§1) Samples of Examples 1 and 2 and Comparative Example 1 were evaluated in two different bacterial growth assays. The first test was a standard Minimum Inhibitory Concentration (MIC) assessment involving serial dilution of test compound particle suspensions in water. In this test, the samples were evaluated at 24 hours against human derived Staphylococcus epidermidis and Corynebacter sp. form organisms. The second test utilized a Biosys® system to assess the effect of the samples added as a dry powder directly to a nutrient broth containing either human derived Staph epidermidis or a mixed Coryne/Staph milieu. In the case of the Biosys test, the bacteria laced nutrient broth alone was used as the negative control.

[2] = system: human derived Staph epidermidis; assay: Biosys bacterial growth test, Staph epidermidis; type: cell-based, Staphylococcus epidermidis; conditions: for % Red (average reduction in bacterial growth rates): 24 hours
Description: as §1

[3] = Salicylic acid release into artificial sweat; type: physicochemical; conditions: 35° C.
Description: FIG. 1 illustrates salicylic acid release at 35° C. Samples of Example 1 (square), Example 2 (triangle) and Comparative Example 1 (diamond) were placed in artificial sweat or artificial sweat plus proteins and incubated at 35° C. for 3 to 5 minutes, 1, 2, 4, 6 and 24 hours, rapidly filtered (0.22 μm filter) and analyzed for salicylic acid by HPLC.
Samples of Example 1 and 2 and Comparative Example 1 were placed in artificial sweat or artificial sweat plus proteins and incubated at 35° C. for 3 to 5 minutes, 1, 2, 4, 6 and 24 hours, rapidly filtered (0.22 μm filter) and analyzed for salicylic acid by HPLC.

[4] = Hydrolytic release of salicylic acid in buffer at 32° C., HPLC; type: physicochemical; conditions: acetate buffer pH 5.5, 32° C.
Description: Examples 1, 3 and 4 (both A & B) and Comparative Examples 1 and 2 were evaluated for rate of release of salicylic acid. Samples were hydrolyzed at 32° C. using acetate buffer (pH 5.5) as relevant condition for typical skin pH. The materials were placed in 50 mL centrifuge tubes for elution using conventional elution protocols, shaking the tubes in a thermostatic environment. Aliquots were taken from the tubes at periodic intervals and immediately placed in a vial and analyzed by HPLC as soon as they were removed from the hydrolysis vessel.
The respective salicylic acid release rates of the Example 4A and Example 4B at pH 5.5 are compared in FIG. 5. The rates of Example 4B at pH of 5.5 and 7.29 are compared in FIG. 6.

[5] = system: human derived Staphylococcus epidermidis; assay: Minimum Inhibitory Concentration (MIC) assessment, Staph epidermidis; type: cell-based; conditions: for antibacterial activity (in words): MIC test, summary of Table 3; for MIC: Staphylococcus epidermidis, 24 hours, particle suspensions in water, read-out: MIC versus Staph epidermidis
Description: as §1

[6] = system: mixed Coryne/Staph milieu; assay: Biosys bacterial growth test, mixed Coryne/Staph; type: cell-based, Corynebacter/Staph; conditions: for % Red (average reduction in bacterial growth rates): 24 hours
Description: as §1

[7] = Particle size determination by light scattering; type: physicochemical; conditions: for Average % of particles below 10 μm / Average % of particles below 100 μm / Average % of particles below 200 μm: average of 3 samples; for Volume Mean Particle Diameter: light scattering
Description: Light scattering techniques were employed to assess the particle size distributions of samples of the compositions of Examples 1 and 2 and Comparative Example 1.

Compound	% Red (average reduction in bacterial growth rates) ([2]; 0.25 mg/ml) [%]	% Red (average reduction in bacterial growth rates) ([2]; 0.5 mg/ml) [%]	% Red (average reduction in bacterial growth rates) ([2]; 2.5 mg/ml) [%]	% Red (average reduction in bacterial growth rates) ([2]; 5 mg/ml) [%]	% Red (average reduction in bacterial growth rates) ([2]; 50 mg/ml) [%]	salicylic acid release rate (in words) [3]	Salicylic Acid Release (Weight Percent of Maximum Release) ([3]; 0.05 hrs)	Salicylic Acid Release (Weight Percent of Maximum Release) ([3]; 1 hr)	Salicylic Acid Release (Weight Percent of Maximum Release) ([3]; 2 hrs)	Salicylic Acid Release (Weight Percent of Maximum Release) ([3]; 4 hrs)	Salicylic Acid Release (Weight Percent of Maximum Release) ([3]; 6 hrs)	Salicylic Acid Release (Weight Percent of Maximum Release) ([3]; 24 hrs)	antibacterial activity (in words) [5]	MIC [5] [µg/mL]	% Red (average reduction in bacterial growth rates) ([6]; 0.25 mg/ml) [%]	% Red (average reduction in bacterial growth rates) ([6]; 0.5 mg/ml) [%]	% Red (average reduction in bacterial growth rates) ([6]; 2.5 mg/ml) [%]	% Red (average reduction in bacterial growth rates) ([6]; 5 mg/ml) [%]	% Red (average reduction in bacterial growth rates) ([6]; 50 mg/ml) [%]	Average % of particles below 10 μm [7] [%]	further results
O=C(CCCCC(=O)Oc1ccccc1C(=O)O)Oc1ccccc1C(=O)O [Comparative Example 1, Bis(2-carboxyphenyl)adipate, reference compound]	0	57	63	100	100	more moderate	1.46 Weight Percent of Maximum Release	4.93 Weight Percent of Maximum Release	6.03 Weight Percent of Maximum Release	6.81 Weight Percent of Maximum Release	10.06 Weight Percent of Maximum Release	26.42 Weight Percent of Maximum Release	little or no	> 1670	0	5	6	100	100	32.1	MIC [1]: > 1670 µg/mL; hydrolysis completion ([4]; in four days): about 90%; Average % of particles below 100 μm [7]: 96.03%; Average % of particles below 200 μm [7]: 99.99%; Volume Mean Particle Diameter [7]: 28.85 μm
O=C(COCCOCC(=O)Oc1ccccc1C(=O)O)Oc1ccccc1C(=O)O [Example 2, Bis(2-carboxyphenyl)-3,6-dioxaoctanedioate]	0	0	50	100	100	rapid initial	35.25 Weight Percent of Maximum Release	47.44 Weight Percent of Maximum Release	44.85 Weight Percent of Maximum Release	46.07 Weight Percent of Maximum Release	51.20 Weight Percent of Maximum Release	58.23 Weight Percent of Maximum Release	modest	~2500 (≈ 5.98 mM)	5	0	100	100	100	37.54	Particle size distribution, Comments [7]: Bimodal size; Average % of particles below 100 μm [7]: 80.89%; Average % of particles below 200 μm [7]: 99.39%; Volume Mean Particle Diameter [7]: 48.82 μm
O=C(COCC(=O)Oc1ccccc1C(=O)O)Oc1ccccc1C(=O)O [Example 1, Bis(2-carboxyphenyl)diglycolate]	10	95	100	100	100	rapid initial	20.035 Weight Percent of Maximum Release	45.525 Weight Percent of Maximum Release	54.910 Weight Percent of Maximum Release	59.795 Weight Percent of Maximum Release	54.890 Weight Percent of Maximum Release	64.520 Weight Percent of Maximum Release	strongest	200 to 1000 (≈ 0.534 to 2.67 mM)	66	29	100	100	100	11.87	MIC [1]: ~200 µg/mL (≈ 0.534 mM); antibacterial activity (in words) ([2]; Biosys, summary of Table 4): strongest; time until hydrolysis is complete [4]: 2.5 h; antibacterial activity (in words) ([6]; Biosys, summary of Table 5): strongest; Average % of particles below 100 μm [7]: 91.69%; Average % of particles below 200 μm [7]: 99.58%; Volume Mean Particle Diameter [7]: 45.64 μm
